# Assay results taken from ChEMBL document CHEMBL4304757, “Synthetic heterocyclic candidates as promising α-glucosidase inhibitors: An overview” (Eur J Med Chem, 2019).
# Target: Alpha glucosidase (Homo sapiens, UniProt O43451+P10253+P14410+Q2M2H8)
# Experiment: Inhibition of alpha-glucosidase (unknown origin)
# Assay type: protein assay
SMILES,IC50 [µM],Ki [µM]
COc1ccc(NC(=O)Cn2cc(Cn3c(-c4cccs4)nc(-c4ccccc4)c3-c3ccccc3)nn2)cc1,15 to 48,–
O=C(C[C@@H](c1cccs1)c1c[nH]c2ccccc12)c1ccccc1,4.3 to 43,–
COC(=O)CC(C)=O,19 to 25,–
COc1ccc(Cc2nnc(-c3ccc(Cl)cc3)n2CC(=O)NNC(=S)Nc2ccc(Cl)cc2)cc1,3.4,–
Cc1ccc(NC(=O)Cn2cc(Cn3c(-c4cccc(F)c4)nc(-c4ccccc4)c3-c3ccccc3)nn2)c(C)c1,15 to 48,–
Cc1ccc(C(=O)N/N=C2\C(=O)Nc3ccc(Cl)cc32)cc1,2.2 to 83,–
CCn1c2ccccc2c2cc(NC(=O)CSc3nc4ccccc4[nH]3)ccc21,0.17,–
O=C(C[C@@H](c1cccc([N+](=O)[O-])c1)c1c[nH]c2ccccc12)c1ccccc1,4.3 to 43,–
Cc1ccc(NC(=O)Cn2cc(Cn3c(-c4cccc(Cl)c4)nc(-c4ccccc4)c3-c3ccccc3)nn2)c(C)c1,15 to 48,–
CCOc1ccccc1NC(=O)Cn1cc(Cn2c(-c3cccc(Br)c3)nc(-c3ccccc3)c2-c2ccccc2)nn1,15,14
COc1ccc(Cc2nnc(-c3ccc(Cl)cc3)n2Cc2nn(CN3CCN(C)CC3)c(=S)o2)cc1,4.3,–
O=C(Cn1cc(Cn2c(-c3ccc(Br)cc3)nc(-c3ccccc3)c2-c2ccccc2)nn1)Nc1ccc(F)cc1,15 to 48,–
O=C(Cn1cc(Cn2c(-c3ccc(F)cc3)nc(-c3ccccc3)c2-c2ccccc2)nn1)Nc1ccc(Cl)cc1Cl,15 to 48,–
O=C1Nc2cc(Br)ccc2/C1=N/NC(=O)c1ccccc1O,2.2 to 83,–
O=C(C[C@@H](c1cccc(Br)c1)c1c[nH]c2ccccc12)c1ccccc1,4.3 to 43,–
O=C(C[C@@H](c1ccc(Cl)cc1Cl)c1c[nH]c2ccccc12)c1ccccc1,4.3 to 43,–
CCOc1ccc(NC(=O)Cn2cc(Cn3c(-c4ccc(C(=O)OC)cc4)nc(-c4ccccc4)c3-c3ccccc3)nn2)cc1,15 to 48,–

SMILES,IC50 [µM],Ki [µM]
COc1ccc(-c2nc(-c3ccccc3)c(-c3ccccc3)n2Cc2cn(CC(=O)Nc3ccc(Cl)cc3Cl)nn2)cc1OC,15 to 48,–
COC(=O)c1ccc(-c2nc(-c3ccccc3)c(-c3ccccc3)n2Cc2cn(CC(=O)Nc3cc(Cl)ccc3Cl)nn2)cc1,15 to 48,–
CCCN1C(=O)/C(=N\NC(=O)Cc2ccc(Cl)cc2Cl)c2ccccc21,2.2 to 83,–
Cc1ccccc1NC(=O)Cn1cc(Cn2c(-c3ccc(Br)cc3)nc(-c3ccccc3)c2-c2ccccc2)nn1,15 to 48,–
O=C1Nc2cc(Cl)ccc2/C1=C/c1ccc(-c2nnc(-c3cc(O)cc(O)c3)o2)cc1,1.2,–
CCOc1ccc(NC(=O)Cn2cc(Cn3c(-c4cccc(Cl)c4)nc(-c4ccccc4)c3-c3ccccc3)nn2)cc1,15 to 48,–
O=C(C[C@@H](c1ccccc1)c1c[nH]c2ccccc12)c1ccccc1,4.3 to 43,–
O=C(C[C@@H](c1cccs1)c1c[nH]c2ccccc12)c1ccc2ccccc2c1,4.3 to 43,–
O=C1NC(=O)/C(=C/c2ccc(-c3nc4ccccc4n3Cc3ccc(Cl)cc3)cc2)S1,0.54,–
O=C(Cc1ccc(Cl)cc1Cl)N/N=C1\C(=O)Nc2cc(Br)ccc21,2.2,–
COc1ccc(NC(=O)Cn2cc(Cn3c(-c4cccc(Cl)c4)nc(-c4ccccc4)c3-c3ccccc3)nn2)cc1,15 to 48,–
CCOC(=O)CC(=O)OCC [MALONIC ACID DIETHYL ESTER],5 to 16,–
Cc1ccccc1NC(=O)Cn1cc(Cn2c(-c3cccc(F)c3)nc(-c3ccccc3)c2-c2ccccc2)nn1,15 to 48,–
O=C1CSC(=O)N1 [THIAZOLIDINEDIONE],0.54 to 2.2,–
COc1ccccc1-c1nc(-c2ccccc2)c(-c2ccccc2)n1Cc1cn(CC(=O)Nc2ccc(C)cc2)nn1,15 to 48,–
Cc1cccc([C@H](CC(=O)c2ccccc2)c2c[nH]c3ccccc23)c1,4.3 to 43,–
CCCCCCCCCCCC(=O)N/N=C1\C(=O)Nc2ccccc21,2.2 to 83,–

# The next lines start with the values.
IC50 [µM],Ki [µM],SMILES
20 to 292,–,Cn1cc(-c2nnc(-c3ccc(C(c4c[nH]c5ccc(C#N)cc45)c4c[nH]c5ccc(C#N)cc45)cc3)o2)c2ccccc21
20 to 292,–,Cc1[nH]c2ccccc2c1-c1nnc(-c2ccc(C(c3c(C)n(C)c4ccccc34)c3c(C)n(C)c4ccccc34)cc2)o1
4.3 to 43,–,O=C(C[C@@H](c1ccccc1)c1c[nH]c2ccccc12)c1ccc2ccccc2c1
2,–,Cn1cc(-c2nnc(-c3ccc(C(c4c[nH]c5ccccc45)c4c[nH]c5ccc(Cl)cc45)cc3)o2)c2ccccc21 (stereo unspecified)
20 to 292,–,c1ccc(-c2[nH]c3ccccc3c2C(c2ccc(-c3nnc(-c4c[nH]c5ccccc45)o3)cc2)c2c(-c3ccccc3)[nH]c3ccccc23)cc1
20 to 292,–,Cc1[nH]c2ccccc2c1-c1nnc(-c2ccc(C(c3c[nH]c4ccc(Br)cc34)c3c[nH]c4ccc(Br)cc34)cc2)o1
4.3 to 43,–,Cc1ccc([C@H](CC(=O)c2ccccc2)c2c[nH]c3ccccc23)cc1
20 to 292,–,Cc1[nH]c2ccccc2c1-c1nnc(-c2ccc(C(c3cn(C)c4ccccc34)c3cn(C)c4ccccc34)cc2)o1
20 to 292,–,Cn1cc(-c2nnc(-c3ccc(C(c4c[nH]c5ccc(Br)cc45)c4c[nH]c5ccc(Br)cc45)cc3)o2)c2ccccc21
20 to 292,–,Cc1[nH]c2ccccc2c1-c1nnc(-c2ccc(C(c3c[nH]c4ccc(C#N)cc34)c3c[nH]c4ccc(C#N)cc34)cc2)o1
20 to 292,–,Clc1ccc2[nH]cc(C(c3ccc(-c4nnc(-c5c[nH]c6ccccc56)o4)cc3)c3c[nH]c4ccc(Cl)cc34)c2c1
20 to 292,–,Cn1cc(-c2nnc(-c3ccc(C(c4c[nH]c5ccc(Cl)cc45)c4c[nH]c5ccc(Cl)cc45)cc3)o2)c2ccccc21
4.3 to 43,–,O=C(C[C@@H](c1ccc(Br)cc1)c1c[nH]c2ccccc12)c1ccccc1
20 to 292,–,Cc1[nH]c2ccccc2c1-c1nnc(-c2ccc(C(c3c[nH]c4ccccc34)c3c[nH]c4ccccc34)cc2)o1
20 to 292,–,Cn1cc(-c2nnc(-c3ccc(C(c4c[nH]c5ccccc45)c4c[nH]c5ccccc45)cc3)o2)c2ccccc21
20 to 292,–,N#Cc1ccc2[nH]cc(C(c3ccc(-c4nnc(-c5c[nH]c6ccccc56)o4)cc3)c3c[nH]c4ccc(C#N)cc34)c2c1
4.3 to 43,–,COc1ccc([C@H](CC(=O)c2ccc3ccccc3c2)c2c[nH]c3ccccc23)cc1
20 to 292,–,Cc1[nH]c2ccccc2c1-c1nnc(-c2ccc(C(c3c[nH]c4ccc(Cl)cc34)c3c[nH]c4ccc(Cl)cc34)cc2)o1
20 to 292,–,Cn1cc(-c2nnc(-c3ccc(C(c4cn(C)c5ccccc45)c4cn(C)c5ccccc45)cc3)o2)c2ccccc21
4.3 to 43,–,O=C(C[C@@H](c1ccc(Cl)cc1)c1c[nH]c2ccccc12)c1ccccc1
20 to 292,–,Cn1cc(C(c2ccc(-c3nnc(-c4c[nH]c5ccccc45)o3)cc2)c2cn(C)c3ccccc23)c2ccccc21
4.3 to 43,–,COc1ccc([C@H](CC(=O)c2ccccc2)c2c[nH]c3ccccc23)cc1
20 to 292,–,Cc1[nH]c2ccccc2c1-c1nnc(-c2ccc(C(c3c(-c4ccccc4)[nH]c4ccccc34)c3c(-c4ccccc4)[nH]c4ccccc34)cc2)o1
20 to 292,–,Cc1c(C(c2ccc(-c3nnc(-c4cn(C)c5ccccc45)o3)cc2)c2c(C)n(C)c3ccccc23)c2ccccc2n1C
4.3 to 43,–,Cc1ccc([C@H](CC(=O)c2ccc3ccccc3c2)c2c[nH]c3ccccc23)cc1
20 to 292,–,c1ccc2c(-c3nnc(-c4ccc(C(c5c[nH]c6ccccc56)c5c[nH]c6ccccc56)cc4)o3)c[nH]c2c1
4.3 to 43,–,O=C(C[C@@H](c1ccc(Cl)cc1)c1c[nH]c2ccccc12)c1ccc2ccccc2c1

# Target: not listed separately
# Experiment: Inhibition of yeast alpha-glucosidase using p-nitrophenyl-alpha-d-glucopyranoside as substrate preincubated for 10 mins followed by substrate addition measured after 30 mins
# Parameters: species or system Saccharomyces cerevisiae
row,IC50 [µM],SMILES
1,2.5,O=c1oc2ccc(Br)cc2cc1-c1nn(-c2ccccc2)cc1-c1nc(-c2ccccc2)c(-c2ccccc2)n1-c1ccc(Cl)cc1
2,35 to 297,Cc1cc2nc(-c3ccc(C(=O)NNC(=S)Nc4ccc(Cl)c(Cl)c4)cc3)[nH]c2cc1C
3,8.4 to 179,COc1ccc(/C=N/NC(=O)c2ccc(-c3nc4cc(C)c(C)cc4[nH]3)cc2)cc1
4,35 to 297,Cc1cc2nc(-c3ccc(C(=O)NNC(=S)Nc4ccccc4Br)cc3)[nH]c2cc1C
5,2.7 to 23,O=[N+]([O-])c1ccc(-n2cc(-c3nc(-c4ccccc4)c(-c4ccccc4)[nH]3)c(-c3ccccc3)n2)cc1
6,2.5 to 46,CCCn1c(-c2cn(-c3ccccc3)nc2-c2cc3ccccc3oc2=O)nc(-c2ccccc2)c1-c1ccccc1
7,35 to 297,Cc1cc2nc(-c3ccc(C(=O)NNC(=S)Nc4ccc(F)cc4)cc3)[nH]c2cc1C
8,8.4 to 179,Cc1cc2nc(-c3ccc(C(=O)N/N=C/c4ccccc4O)cc3)[nH]c2cc1C
9,8.4,Cc1cc2nc(-c3ccc(C(=O)N/N=C/c4cc(O)c(O)c(O)c4)cc3)[nH]c2cc1C
10,2.5 to 46,O=c1oc2ccccc2cc1-c1nn(-c2ccccc2)cc1-c1nc(-c2ccccc2)c(-c2ccccc2)n1-c1ccc(Br)cc1
11,8.4 to 9.9,COc1ccc(O)c(/C=N/NC(=O)c2ccc(-c3nc4cc(C)c(C)cc4[nH]3)cc2)c1
12,8.4 to 179,Cc1cc2nc(-c3ccc(C(=O)N/N=C/c4ccccn4)cc3)[nH]c2cc1C
13,2.5 to 46,Cc1ccc(-n2c(-c3cn(-c4ccccc4)nc3-c3cc4cc(Br)ccc4oc3=O)nc(-c3ccccc3)c2-c2ccccc2)cc1
14,8.4 to 179,Cc1cc2nc(-c3ccc(C(=O)N/N=C/c4cccnc4)cc3)[nH]c2cc1C
15,8.4 to 179,Cc1cc2nc(-c3ccc(C(=O)N/N=C/c4ccc([N+](=O)[O-])cc4)cc3)[nH]c2cc1C
16,8.4 to 179,Cc1cc2nc(-c3ccc(C(=O)N/N=C/c4ccc(O)c(Br)c4)cc3)[nH]c2cc1C
17,8.4 to 179,Cc1cc2nc(-c3ccc(C(=O)N/N=C/c4ccc(Cl)cc4)cc3)[nH]c2cc1C
18,8.4 to 9.9,Cc1cc2nc(-c3ccc(C(=O)N/N=C/c4cc(O)ccc4O)cc3)[nH]c2cc1C
19,35 to 297,Cc1cccc(NC(=S)NNC(=O)c2ccc(-c3nc4cc(C)c(C)cc4[nH]3)cc2)c1
20,35 to 297,Cc1cc2nc(-c3ccc(C(=O)NNC(=S)Nc4cccc(F)c4)cc3)[nH]c2cc1C
21,35 to 297,Cc1cc2nc(-c3ccc(C(=O)NNC(=S)Nc4ccc(Cl)cc4)cc3)[nH]c2cc1C
22,8.4 to 179,Cc1cccc(/C=N/NC(=O)c2ccc(-c3nc4cc(C)c(C)cc4[nH]3)cc2)c1
23,8.4 to 179,Cc1cc2nc(-c3ccc(C(=O)N/N=C/c4ccc(O)cc4)cc3)[nH]c2cc1C
24,19,Cc1nn(-c2ccc(Nc3cccc(Cl)c3)nn2)c(C)c1[N+](=O)[O-]
